Laboratory results taken from patent publication US11970513B2, “Advanced glycation end product analogues” (Phytoquest Limited, priority 2012, dated 2024).
Like-named read-outs stand apart in the source and are kept apart here.

Key:
α-D-giucosidase = biological target: T1, α-D-giucosidase (Saccharomyces cerevisiae, UniProt P53341); experiment: Glycosidase assay, α-D-glucosidase (Saccharomyces cerevisiae); type: biochemical; conditions: 0.2 mM, negative value = stabilisation/promotion, read-out: percentage inhibition
T1 construct: purchased Sigma
T1 sequence (P53341 whole entry): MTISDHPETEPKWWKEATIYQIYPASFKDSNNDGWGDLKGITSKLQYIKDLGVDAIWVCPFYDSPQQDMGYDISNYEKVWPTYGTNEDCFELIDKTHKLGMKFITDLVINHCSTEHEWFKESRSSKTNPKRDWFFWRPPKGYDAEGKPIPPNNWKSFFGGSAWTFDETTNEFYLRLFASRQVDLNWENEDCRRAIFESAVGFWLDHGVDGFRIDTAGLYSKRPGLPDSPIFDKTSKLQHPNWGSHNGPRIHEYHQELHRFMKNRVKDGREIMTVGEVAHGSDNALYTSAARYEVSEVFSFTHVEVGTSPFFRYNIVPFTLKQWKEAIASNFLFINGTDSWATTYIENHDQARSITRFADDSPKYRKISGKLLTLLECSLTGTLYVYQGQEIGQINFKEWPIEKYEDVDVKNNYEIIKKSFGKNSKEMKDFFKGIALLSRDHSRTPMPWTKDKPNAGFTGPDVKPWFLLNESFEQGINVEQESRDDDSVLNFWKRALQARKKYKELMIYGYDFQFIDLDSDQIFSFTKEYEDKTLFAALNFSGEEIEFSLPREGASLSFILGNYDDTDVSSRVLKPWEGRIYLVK
Experimental: (§1) All enzymes and para-nitrophenyl substrates were purchased from Sigma, with the exception of beta-mannosidase which came from Megazyme. Enzymes were assayed at 27° C. in 0.1M citric acid/0.2M disodium hydrogen phosphate buffers at the optimum pH for the enzyme. The incubation mixture consisted of 10 μl enzyme solution, 10 μl of 1 mg/ml aqueous solution of sample and 50 μl of the appropriate 5 mM para-nitrophenyl substrate made up in buffer at the optimum pH for the enzyme. The reactions were stopped by addition of 70 μl 0.4M glycine (pH 10.4) during the exponential phase of the reaction, which had been determined at the beginning using uninhibited assays in which water replaced inhibitor. Final absorbances were read at 405 nm using a Versamax microplate reader (Molecular Devices). Assays were carried out in triplicate, and the values given are means of the three replicates per assay. The method was carried out as described in Watson et al. (1997) Phytochemistry 46 (2): 255-259.

α-D-glucosidase [1] = experiment: Glycosidase assay, α-D-glucosidase (Bacillus sterothermophilus); type: biochemical; conditions: 0.2 mM, negative value = stabilisation/promotion
Experimental: as §1

α-D-glucosidase [2] = biological target: T2, α-D-glucosidase (Oryza sativa subsp. japonica, UniProt Q653V7); experiment: Glycosidase assay, α-D-glucosidase (rice); type: biochemical; conditions: 0.2 mM, Rice (Oryza saliva), negative value = stabilisation/promotion, read-out: percentage inhibition
T2 construct: purchased Sigma
T2 sequence (Q653V7 34-885): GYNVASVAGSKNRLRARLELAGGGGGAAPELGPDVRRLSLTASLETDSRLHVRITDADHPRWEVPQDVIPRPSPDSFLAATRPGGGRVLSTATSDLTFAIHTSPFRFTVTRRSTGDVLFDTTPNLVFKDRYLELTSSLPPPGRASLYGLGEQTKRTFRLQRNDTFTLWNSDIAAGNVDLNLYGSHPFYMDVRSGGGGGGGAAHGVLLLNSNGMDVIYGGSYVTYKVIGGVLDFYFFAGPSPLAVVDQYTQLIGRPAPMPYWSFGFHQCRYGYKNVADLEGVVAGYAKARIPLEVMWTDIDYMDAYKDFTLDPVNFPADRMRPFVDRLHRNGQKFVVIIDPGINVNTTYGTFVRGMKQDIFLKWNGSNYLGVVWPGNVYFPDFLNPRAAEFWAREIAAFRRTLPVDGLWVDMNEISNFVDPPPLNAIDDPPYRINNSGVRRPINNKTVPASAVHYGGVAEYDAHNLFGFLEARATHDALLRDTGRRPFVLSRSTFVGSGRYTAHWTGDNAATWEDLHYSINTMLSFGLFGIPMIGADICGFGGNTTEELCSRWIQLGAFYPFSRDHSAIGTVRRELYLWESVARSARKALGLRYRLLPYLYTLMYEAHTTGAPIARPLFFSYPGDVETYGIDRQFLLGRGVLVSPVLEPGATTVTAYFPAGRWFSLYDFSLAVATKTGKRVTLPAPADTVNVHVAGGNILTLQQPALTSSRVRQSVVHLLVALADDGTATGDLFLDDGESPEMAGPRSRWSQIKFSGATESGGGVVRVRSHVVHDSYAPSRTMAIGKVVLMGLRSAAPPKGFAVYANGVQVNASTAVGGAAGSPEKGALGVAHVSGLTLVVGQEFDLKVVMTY
Experimental: as §1

β-D-glucosidase = experiment: Glycosidase assay, β-D-glucosidase (almond); type: biochemical; conditions: 0.2 mM, Almond (Prunus sp.), negative value = stabilisation/promotion
Experimental: as §1

α-D-galactosidase = biological target: T3, α-D-galactosidase (Coffea arabica, UniProt Q42656); experiment: Glycosidase assay, α-D-galactosidase (green coffee bean); type: biochemical; conditions: 0.2 mM, Green coffee bean (Coffea sp.), negative value = stabilisation/promotion, read-out: percentage inhibition
T3 construct: purchased Sigma
T3 sequence (Q42656 16-378): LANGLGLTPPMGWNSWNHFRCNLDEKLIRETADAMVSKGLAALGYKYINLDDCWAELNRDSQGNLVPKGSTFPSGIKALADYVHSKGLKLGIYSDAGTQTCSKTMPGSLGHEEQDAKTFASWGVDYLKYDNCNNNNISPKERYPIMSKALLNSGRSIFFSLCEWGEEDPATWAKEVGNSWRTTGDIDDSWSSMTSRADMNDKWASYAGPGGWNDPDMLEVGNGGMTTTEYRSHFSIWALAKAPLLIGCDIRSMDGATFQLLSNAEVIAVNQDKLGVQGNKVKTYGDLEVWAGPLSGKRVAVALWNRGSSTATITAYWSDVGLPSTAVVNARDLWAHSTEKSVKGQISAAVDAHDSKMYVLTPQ
Experimental: as §1

β-D-galactosidase = experiment: Glycosidase assay, β-D-galactosidase (bovine liver); type: biochemical; conditions: 0.2 mM, negative value = stabilisation/promotion
Experimental: as §1

α-L-fucosidase = biological target: T4, α-L-fucosidase (Bos taurus, UniProt Q2KIM0); experiment: Glycosidase assay, α-L-fucosidase (bovine kidney); type: biochemical; conditions: 0.2 mM, negative value = stabilisation/promotion, read-out: percentage inhibition
T4 construct: purchased Sigma
T4 sequence (Q2KIM0 23-468): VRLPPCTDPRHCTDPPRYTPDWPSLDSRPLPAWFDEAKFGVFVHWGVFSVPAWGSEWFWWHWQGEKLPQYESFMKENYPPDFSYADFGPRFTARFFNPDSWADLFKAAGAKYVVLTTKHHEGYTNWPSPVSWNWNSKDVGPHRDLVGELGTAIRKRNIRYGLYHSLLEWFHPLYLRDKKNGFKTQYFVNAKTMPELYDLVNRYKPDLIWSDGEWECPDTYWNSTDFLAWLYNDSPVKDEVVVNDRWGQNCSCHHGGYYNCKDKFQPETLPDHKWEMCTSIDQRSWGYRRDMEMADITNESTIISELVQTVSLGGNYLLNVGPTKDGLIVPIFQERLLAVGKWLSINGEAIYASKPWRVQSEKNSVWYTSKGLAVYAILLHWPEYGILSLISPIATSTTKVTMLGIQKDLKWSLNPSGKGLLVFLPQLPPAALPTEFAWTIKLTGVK
Experimental: as §1

α-D-mannosidase = biological target: T5, α-D-mannosidase (Canavalia ensiformis, UniProt C0HJB3); experiment: Glycosidase assay, α-D-mannosidase (jack bean); type: biochemical, Jack bean (Canavalia ensiformis); conditions: read-out: percentage inhibition
T5 construct: purchased Sigma
T5 sequence (C0HJB3 1-981): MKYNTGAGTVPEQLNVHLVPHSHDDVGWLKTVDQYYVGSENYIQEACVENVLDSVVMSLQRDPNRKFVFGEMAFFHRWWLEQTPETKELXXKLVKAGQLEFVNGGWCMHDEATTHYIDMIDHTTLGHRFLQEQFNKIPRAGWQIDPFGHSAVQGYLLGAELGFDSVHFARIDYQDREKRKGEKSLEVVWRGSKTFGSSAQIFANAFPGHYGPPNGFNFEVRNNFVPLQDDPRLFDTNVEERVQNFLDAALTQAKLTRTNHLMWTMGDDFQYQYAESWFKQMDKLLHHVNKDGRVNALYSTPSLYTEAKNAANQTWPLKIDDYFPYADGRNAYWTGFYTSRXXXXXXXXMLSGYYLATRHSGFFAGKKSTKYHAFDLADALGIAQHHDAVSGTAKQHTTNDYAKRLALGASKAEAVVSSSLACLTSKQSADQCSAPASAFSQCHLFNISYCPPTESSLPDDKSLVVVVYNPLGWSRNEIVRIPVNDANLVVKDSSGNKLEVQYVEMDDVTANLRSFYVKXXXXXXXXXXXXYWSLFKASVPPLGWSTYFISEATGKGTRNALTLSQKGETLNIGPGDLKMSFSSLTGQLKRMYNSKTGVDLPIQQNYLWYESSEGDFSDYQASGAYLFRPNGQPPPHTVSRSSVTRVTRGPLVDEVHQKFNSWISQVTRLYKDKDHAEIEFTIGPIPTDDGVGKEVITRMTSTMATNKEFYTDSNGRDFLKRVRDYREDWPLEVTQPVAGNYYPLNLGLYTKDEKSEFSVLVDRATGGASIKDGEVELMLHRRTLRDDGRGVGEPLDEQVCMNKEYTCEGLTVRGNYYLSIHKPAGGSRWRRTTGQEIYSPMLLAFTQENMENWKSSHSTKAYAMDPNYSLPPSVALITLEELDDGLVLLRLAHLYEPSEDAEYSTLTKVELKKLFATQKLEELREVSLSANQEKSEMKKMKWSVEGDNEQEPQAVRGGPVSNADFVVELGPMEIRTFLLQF
Experimental: as §1

β-D-mannosidase = experiment: Glycosidase assay, β-D-mannosidase (Cellullomonas fimi); type: biochemical; conditions: 0.2 mM, negative value = stabilisation/promotion
Experimental: as §1

Naringinase = experiment: Glycosidase assay, naringinase (Penicillium decumbens); type: biochemical; conditions: 0.2 mM, negative value = stabilisation/promotion
Experimental: as §1

[3] = test system: N-acetyl-β-D-glucosaminidase; experiment: Glycosidase assay, N-acetyl-β-D-glucosaminidase (bovine kidney); type: biochemical; conditions: for percentage inhibition: 0.2 mM, N-acetyl-β-D-glucosaminidase, Bovine kidney, negative value = stabilisation/promotion; for IC50: bovine hexosaminidase, read-out: IC50 against the bovine hexosaminidase
Experimental: as §1

[4] = test system: N-acetyl-β-D-glucosaminidase; experiment: Glycosidase assay, N-acetyl-β-D-glucosaminidase (jack bean); type: biochemical; conditions: 0.2 mM, negative value = stabilisation/promotion
Experimental: as §1

[5] = biological target: T6, N-acetyl-β-D-hexosaminidase (Aspergillus oryzae, UniProt Q8J2T0); experiment: Glycosidase assay, N-acetyl-β-D-hexosaminidase (Aspergillus oryzae); type: biochemical; conditions: 0.2 mM, negative value = stabilisation/promotion, read-out: percentage inhibition
T6 construct: purchased Sigma
T6 sequence (Q8J2T0 97-600): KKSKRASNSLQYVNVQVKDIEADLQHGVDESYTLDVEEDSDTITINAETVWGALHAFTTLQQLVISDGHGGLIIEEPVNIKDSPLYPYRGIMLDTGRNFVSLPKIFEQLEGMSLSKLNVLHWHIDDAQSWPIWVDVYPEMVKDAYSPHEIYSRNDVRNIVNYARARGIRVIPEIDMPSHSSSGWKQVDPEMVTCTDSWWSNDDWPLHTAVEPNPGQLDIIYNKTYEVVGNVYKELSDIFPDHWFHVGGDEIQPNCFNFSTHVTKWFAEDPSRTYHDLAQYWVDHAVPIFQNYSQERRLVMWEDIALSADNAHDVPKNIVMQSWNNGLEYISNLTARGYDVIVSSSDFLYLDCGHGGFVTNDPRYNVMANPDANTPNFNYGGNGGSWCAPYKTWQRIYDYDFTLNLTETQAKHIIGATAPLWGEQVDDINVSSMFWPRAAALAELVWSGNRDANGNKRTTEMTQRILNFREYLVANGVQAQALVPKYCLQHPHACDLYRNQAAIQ
Experimental: as §1

Amyloglucosidase = biological target: T7, Amyloglucosidase (Aspergillus niger, UniProt P69328); experiment: Glycosidase assay, amyloglucosidase (Aspergillus niger); type: biochemical; conditions: 0.2 mM, negative value = stabilisation/promotion, read-out: percentage inhibition
T7 construct: purchased Sigma
T7 sequence (P69328 25-640): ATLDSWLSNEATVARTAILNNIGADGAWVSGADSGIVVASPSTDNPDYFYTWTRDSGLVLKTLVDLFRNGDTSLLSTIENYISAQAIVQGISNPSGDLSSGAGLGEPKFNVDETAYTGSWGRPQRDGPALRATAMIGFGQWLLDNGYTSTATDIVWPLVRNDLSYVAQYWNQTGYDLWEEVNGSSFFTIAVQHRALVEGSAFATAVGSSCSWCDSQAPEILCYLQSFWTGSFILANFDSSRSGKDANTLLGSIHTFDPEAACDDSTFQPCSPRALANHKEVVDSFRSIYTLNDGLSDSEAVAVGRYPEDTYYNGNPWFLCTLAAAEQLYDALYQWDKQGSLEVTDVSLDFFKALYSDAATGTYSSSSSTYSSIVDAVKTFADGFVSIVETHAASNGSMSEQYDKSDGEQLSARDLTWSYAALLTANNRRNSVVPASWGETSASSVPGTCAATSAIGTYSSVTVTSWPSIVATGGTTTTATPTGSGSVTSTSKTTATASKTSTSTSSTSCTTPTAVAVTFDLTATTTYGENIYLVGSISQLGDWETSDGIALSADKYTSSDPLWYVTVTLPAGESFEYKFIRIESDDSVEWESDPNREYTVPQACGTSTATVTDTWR
Experimental: as §1

β-glucuronidase [6] = biological target: T8, β-glucuronidase (Bos taurus, UniProt A3KMY8); experiment: Glycosidase assay, β-glucuronidase (bovine liver); type: biochemical; conditions: for inhibition at 200 µM: read-out: percentage inhibition
T8 sequence (A3KMY8 1-652): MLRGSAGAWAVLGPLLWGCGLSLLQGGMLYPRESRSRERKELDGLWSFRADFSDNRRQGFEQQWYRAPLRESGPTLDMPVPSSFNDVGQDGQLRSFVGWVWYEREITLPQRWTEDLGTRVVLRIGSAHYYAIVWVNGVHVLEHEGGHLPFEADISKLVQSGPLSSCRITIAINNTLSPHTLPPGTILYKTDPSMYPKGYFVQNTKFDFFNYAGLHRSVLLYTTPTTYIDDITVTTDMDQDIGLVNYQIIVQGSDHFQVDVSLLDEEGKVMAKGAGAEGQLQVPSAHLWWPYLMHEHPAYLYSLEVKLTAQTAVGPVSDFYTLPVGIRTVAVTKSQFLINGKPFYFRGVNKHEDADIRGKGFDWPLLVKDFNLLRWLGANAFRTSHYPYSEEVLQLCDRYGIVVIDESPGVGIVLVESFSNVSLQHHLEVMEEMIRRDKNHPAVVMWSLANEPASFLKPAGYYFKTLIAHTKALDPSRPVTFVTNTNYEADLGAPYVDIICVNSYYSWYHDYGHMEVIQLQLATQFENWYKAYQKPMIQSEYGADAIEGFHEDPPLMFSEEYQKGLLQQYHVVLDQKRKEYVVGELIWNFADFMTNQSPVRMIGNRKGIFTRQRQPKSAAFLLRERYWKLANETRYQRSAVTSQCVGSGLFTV
Experimental: as §1

β-glucuronidase [7] = biological target: T9, β-glucuronidase (Escherichia coli, UniProt P05804); experiment: Glycosidase assay, β-glucuronidase (E. coli); type: biochemical; conditions: 0.2 mM, negative value = stabilisation/promotion, read-out: percentage inhibition
T9 construct: purchased Sigma
T9 sequence (P05804 whole entry): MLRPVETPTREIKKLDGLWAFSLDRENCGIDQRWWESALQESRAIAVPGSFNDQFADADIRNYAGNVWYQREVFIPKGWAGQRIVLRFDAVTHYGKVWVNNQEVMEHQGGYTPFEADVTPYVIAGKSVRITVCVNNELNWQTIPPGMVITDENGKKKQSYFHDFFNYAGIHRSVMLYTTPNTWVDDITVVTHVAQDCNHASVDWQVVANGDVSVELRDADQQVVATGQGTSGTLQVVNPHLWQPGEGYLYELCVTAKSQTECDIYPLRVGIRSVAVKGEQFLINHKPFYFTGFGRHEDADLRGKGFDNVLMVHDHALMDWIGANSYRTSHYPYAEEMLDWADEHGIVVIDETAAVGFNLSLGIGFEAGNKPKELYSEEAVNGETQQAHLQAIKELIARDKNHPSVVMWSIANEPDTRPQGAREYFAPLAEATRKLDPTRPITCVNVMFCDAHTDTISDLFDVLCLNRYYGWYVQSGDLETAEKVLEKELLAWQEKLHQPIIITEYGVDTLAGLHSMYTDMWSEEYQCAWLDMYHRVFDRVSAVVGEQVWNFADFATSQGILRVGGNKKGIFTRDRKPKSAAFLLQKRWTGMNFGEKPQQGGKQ
Experimental: as §1

glycogen phosphorylase b = biological target: T10, glycogen phosphorylase b (Oryctolagus cuniculus, UniProt P00489); experiment: Glycogen phosphorylase (GPb) activity; type: biochemical
T10 construct: purchased Sigma-Aldrich Fine Chemicals (St. Louis, Mo, USA)
T10 sequence (P00489 1-843): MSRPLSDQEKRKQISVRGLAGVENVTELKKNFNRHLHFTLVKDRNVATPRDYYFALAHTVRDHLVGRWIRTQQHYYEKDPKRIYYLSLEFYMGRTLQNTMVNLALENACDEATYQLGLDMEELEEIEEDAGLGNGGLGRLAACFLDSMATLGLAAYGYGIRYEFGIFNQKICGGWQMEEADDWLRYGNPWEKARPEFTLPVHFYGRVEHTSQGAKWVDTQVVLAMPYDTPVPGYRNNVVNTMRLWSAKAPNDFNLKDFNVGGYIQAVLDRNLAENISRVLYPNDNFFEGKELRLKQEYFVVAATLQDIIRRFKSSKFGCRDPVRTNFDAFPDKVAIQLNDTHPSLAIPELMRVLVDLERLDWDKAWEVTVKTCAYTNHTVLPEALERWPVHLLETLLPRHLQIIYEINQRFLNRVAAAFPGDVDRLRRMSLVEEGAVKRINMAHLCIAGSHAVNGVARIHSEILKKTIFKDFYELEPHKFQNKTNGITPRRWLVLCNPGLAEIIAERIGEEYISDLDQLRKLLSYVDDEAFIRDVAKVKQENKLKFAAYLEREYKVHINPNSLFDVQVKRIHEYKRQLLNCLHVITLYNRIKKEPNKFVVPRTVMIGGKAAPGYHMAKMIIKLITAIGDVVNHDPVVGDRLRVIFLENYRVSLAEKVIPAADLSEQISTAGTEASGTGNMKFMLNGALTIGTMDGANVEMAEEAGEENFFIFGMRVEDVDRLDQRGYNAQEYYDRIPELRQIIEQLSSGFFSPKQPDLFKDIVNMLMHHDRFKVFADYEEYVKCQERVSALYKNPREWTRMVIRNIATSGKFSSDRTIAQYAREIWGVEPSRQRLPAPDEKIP
Experimental: N2-beta-D-Fructopyranos-1-yl-Arginine and 1-Deoxy-1-(N-γ-aminobutyric acid)fructose were tested on glycogen phosphorylase and found to give weak inhibition (14.2 and 5.5% respectively at 400 μM.
Materials. Phosphoglucomutase, glucose-6-phosphate dehydrogenase, glucose-1,6-bisphosphate, glycogen phosphorylase b, α-D-glucose 1-phosphate dipotassium salt hydrate were purchased from Sigma-Aldrich Fine Chemicals (St. Louis, Mo, USA). Glycogen and caffeine were purchased from Nacalai Tesque (Kyoto, Japan). Other chemicals were from Wako Pure Chemical industries (Osaka, Japan).
Measurement of GPb activity. GPb activity was measured in the direction of glycogenolysis using 2 mg/mL glycogen as the substrate in 45 mM phosphate buffer at pH 6.8, containing 0.1 mM EDTA. […] The rate of enzyme-catalysed reaction in the medium can be followed as the increase in absorbance at 340 nm and 25° C. due to the formation of NADPH. GPb activity was also measured in the direction of glycogen synthesis using 25 mM glucose-1-P as substrate in a 250 mM Tris-malate buffer (pH 6.8), containing 5 mg/mL glycogen, 1 mM AMP, 15 mM cysteine, and glycogen phosphorylase b. […] Pi was measured by the Fiske-Subbarow method. The rate of enzyme-catalysed reaction in the medium was followed as the Increase in absorbance at 660 nm.

SMILES	inhibition at 200 µM (α-D-giucosidase) [%]	percentage inhibition (α-D-glucosidase [1]) [%]	inhibition at 200 µM (α-D-glucosidase [2]) [%]	percentage inhibition (β-D-glucosidase) [%]	inhibition at 200 µM (α-D-galactosidase) [%]	percentage inhibition (β-D-galactosidase) [%]	inhibition at 200 µM (α-L-fucosidase) [%]	inhibition at 200 µM (α-D-mannosidase) [%]	percentage inhibition (β-D-mannosidase) [%]	percentage inhibition (Naringinase) [%]	percentage inhibition [3] [%]	IC50 [3] [µM]	percentage inhibition [4] [%]	inhibition at 200 µM [5] [%]	inhibition at 200 µM (Amyloglucosidase) [%]	inhibition at 200 µM (β-glucuronidase [6]) [%]	inhibition at 200 µM (β-glucuronidase [7]) [%]	inhibition at 400 µM (glycogen phosphorylase b) [%]	inhibition at 200 µM (α-D-mannosidase; 0.2 mM, α-D-mannosidase, Jack bean (Canavalia ensiformis), negative value = stabilisation/promotion) [%]	IC50 (β-glucuronidase [6]; bovine β-glucuronidase, read-out: IC50 against the bovine β-glucuronidase) [µM]
O=C(O)CCCNCC1(O)OCC(O)C(O)C1O (stereo not shown) [1-Deoxy-1-(N-γ-aminobutyric acid)fructose]	-4.2	0.7	-4.2	−0.9	-7.1	1.3	-1.3	-6.2	−10.3	0.2	55.3	200	−6.3	-19.2	-2.9	-1.2	-0.8	5.5		
N=C(N)NCCCC(NCC1(O)OCC(O)C(O)C1O)C(=O)O [N2-β-D-Fructopyranos-1-yl-Arginine, 5-carbamimidamido-2-{[(2,3,4,5-tetrahydroxytetrahydro-2H-pyran-2-yl)methyl]amino}pentanoic acid]	-1.4	−1.7	-6	7.6	3.4	−3.9	-9.3		−8.1	4.1	88.5	7.7	−0.8	-15.3	15	85.2	-9	14.2	35.2	101
